Entries after “also recorded” stand apart in the source; their conditions may differ.

What all share (type): cell-based
For test [1], the system named is human colorectal cancer cells HCT116 [인간 대장암 세포, HCT116]. Briefly: alamarBlue cell proliferation assay, human colorectal cancer cells HCT116. Conditions: 48 h, concentration dependence (Fig. 3: 100nM-1μM; Fig. 9). On the technique in general: Resazurin is reduced to fluorescent resorufin, in cell work by metabolically active cells.
For test [2], the system named is PLK-1. Briefly: PLK-1 ELISA in HCT116 cells. Conditions: HCT116, 48 h. In general terms: An ELISA detects its analyte on a solid surface through an enzyme-linked reagent.
For test [3], the system named is PLK-1. Briefly: Western blot of Plk-1 in HCT116 cells. Conditions: HCT116, 48 h; listed as 콜치신.
Test [4] relates to human colorectal cancer cells [인간 대장암 세포]. The test can be described thus: Apoptosis induction in human colorectal cancer cells (Western blot). The following applies: listed as 콜치신. A general note: Immunoblotting shows a protein as a band on a membrane.

Take `COc1cc2c(c(OC)c1OC)-c1ccc(OC)c(=O)cc1[C@@H](NC(C)=O)CC2` [H11-G04, Colchicine]: the “inhibition of cell proliferation” value in test [1] was “세포증식이 농도에 따라 유의적으로 억제되는 효과가 나타났다”. For the same compound, the Plk-1 concentration result in the test with PLK-1 [2] is on record as “콜치신에 의해 Plk-1 농도가 감소함”. Also, the “inhibition of Plk-1 expression” value in the test with PLK-1 [3] was “콜치신이 Plk-1의 발현을 억제함; also recorded: Plk-1의 발현도 역시 억제된다”. Also, the induction of apoptosis entry in test [4] was “콜치신이 인간 대장암 세포의 사멸(apoptosis)를 유도함; also recorded: 세포사멸을 유도”.

The values above are taken from KR20140086355A, “콜치신 유도체를 유효성분으로 포함하는 암의 예방 또는 치료용 조성물” (한국화학연구원, priority 2012, dated 2014).
